The text below walks through data of patent publication US5618665A, “Enzymatic fluorometric assay for adenylate cyclase” (Regents of the University of Minnesota, priority 1994, dated 1997).

Experiment [1] concerns adenylate cyclase. Nature of the experiment: Fluorometric (non-radioactive) adenylate cyclase assay, rabbit ventricular membranes. The settings on record: NaF 10^-2 M; for Agonist-stimulated adenylate cyclase activity, fluorescent assay: Iso 10^-6 M, GppNHp 10^-4 M, n = 5; for stimulated activity, reduced assay volume: membrane suspension reduced from 25 μl to 5 μl, isoproterenol 10^-6 M. It is filed as biochemical, rabbit (New Zealand white). The procedure: Ventricular membrane preparations were prepared from five male New Zealand white rabbits (weight 2.4 kg; W.O.R.K., Philomith, Oreg.) sacrificed by cervical concussion and immediate incision of the heart as previously described. Briefly, hearts were placed in ice-cold SET buffer (0.25M sucrose, 0.1 mM EDTA, 5.0 mM Tris HCl, pH 7.4). Portions (1-2 g) from the ventricular apex were minced and then homogenized in ice-cold SET buffer (1/10, w/v). The homogenate was filtered through a Nitex filter (three layers) (Tetko, Los Angeles, Calif.) and then centrifuged for 20 min. at 1000×g. The pellet was resuspended and centrifuged three more times. The final pellet was resuspended in SET buffer (1.5 mg protein/ml) and stored at -70° C. until enzyme activity was measured.
A volume of 1.0 μl of either H2 O, NaF, guanylyl -5'-imidodiphosphate (GppNHp), isoproterenol, or isoproterenol+GppNHp was added to each of five reaction tubes and maintained at 0° C. Next, 25 μl of reaction mixture B (tris Acetate 100 mM, pH 7.4; KCl 20 mM; MgCl2 10.0 mM; phosphoenolpyruvate 20 mM; ATP 2.0 mM; GTP 0.02 mM; dithiothreitol 2.0 mM; bovine serum albumin 0.04%; theophylline 0.2 mM; pyruvate kinase 1.0 mg/ml) were added to each reaction tube. Finally, 25 μl of membrane suspension (40 to 45 μg protein) were added to each tube and the reaction was initiated by placing the tubes in a water bath at 37° C. After 30 minutes at 37° C., the reaction was stopped by the addition of 50 μl of 50 mM NaOH. The reaction mixture was heated for 5 minutes at 95° C.
1. A volume of 20-40 μl of reaction product from Part A was added to 100 μl of cleaning reaction mix (Tris-HCl 50 mM, pH 8.0; MgCl2 5 mM; CaCl2, 2 mM; 5'-nucleotidase 0.025 units/ml; apyrase 0.02 units/ml; adenosine deaminase 0.1 mg/ml). After 30 minutes at 37° C., the reaction was terminated by heating it at 95° C. for 5 minutes.
2. […] After 60 minutes at 37° C., 600 μl of 2-amino-2-methyl-1-propanol (AMP2) 50 mM, pH 9.9 was added to the reaction mix and the final concentration of NADPH was measured fluorometrically.
Although the basal activity is nearly 3 times higher in the nonradioactive method, the "fold" stimulation is similar for both receptor-mediated agonists (isoproterenol±GppNHp) as well by NaF, which directly stimulates adenylate cyclase.
The non-radioactive assay of Example 2 is at least 5 times more sensitive than the modified Salomon radioactive assay of Example 1. In Table 3, 5 μl of membrane preparation were used to measure adenylate cyclase activity in the non-radioactivity assay compared to 25 μl with the radioactive preparations. In a separate experiment, the volume of membrane suspension was reduced from 25 μl to 5 μl. By proportionally reducing the assay volume size, no difference in basal (58.4±3.9), isoproterenol (10^-6 M) (128±7.6) or NaF (10^-2 M) (331.9±42.8) stimulated activity was observed when results were compared to larger assay volumes present. EXAMPLE 5.

Experiment [2] concerns adenylate cyclase. Nature of the experiment: Effect of theophylline on basal and isoproterenol-stimulated adenylate cyclase activity. Format: biochemical. The source says: To investigate the effects of theophylline on basal adenylate cyclase activity, increasing concentrations of theophylline were studied (Table 2).

For `CC(C)NCC(O)c1ccc(O)c(O)c1` (stereo not drawn) [isoproterenol], in the experiment with adenylate cyclase [1], the “Agonist-stimulated adenylate cyclase activity, fluorescent assay” value is recorded as 110.0 ± 3.3 pmoles of cAMP/mg/min and the “stimulated activity, reduced assay volume” value is on record as 128±7.6. Also, the “"fold" stimulation (agonist-stimulated activity/basal activity) of adenylate cyclase activity” value with adenylate cyclase [2] (at a given concentration of isoproterenol, in the presence of theophylline) is “constant”. Also, in the experiment on adenylate cyclase [2] (isoproterenol 10^-6 M, control (no theophylline), n = 5), the “Isoproterenol Stimulated adenylate cyclase activity” value was 51.73 ± 10.47 pmol/mg/min.
Consider `[F-].[Na+]` [NaF, Sodium Fluoride], for which, in the experiment on adenylate cyclase [1], the “Agonist-stimulated adenylate cyclase activity, fluorescent assay” value is reported as 346.7 ± 15.9 pmoles of cAMP/mg/min and the “stimulated activity, reduced assay volume” value is 331.9±42.8.
